Where a name gives a salt, the structure may show the parent alone.
Columns and labels:
[1] = tested on: IL-1β; assay: LPS induced IL-1β production in THP-1 monocyte cells; format: cell-based, Human; conditions: THP-1 cells, LPS 1 μg/ml, 24 hours, ELISA
Protocol: (§1) Human THP-1 monocyte cells were cultured and incubated with compounds A and B at different concentrations. Cells were then challenged with lipopolysaccharides (LPS) at a concentration of (1 μg/ml) for 24 hours. Cell supernatants were then analyzed for the presence of TNFα, IL-1β and IL-6 cytokines by antibody directed enzyme-linked immunoassay (FIGS. 8A, 8B, and 8C).

[2] = tested on: ob/ob mice; assay: Lipid profile (TG, VLDL, cholesterol, HDL) in ob/ob mice; format: in vivo; conditions: 15-day treatment study
Description: The leptin knock-out ob/ob mice is also considered a good model for insulin resistance and hyperlipidemia. Treatment of these animals with the compounds A and B lowered serum triglycerides (FIG. 4A) and VLDL (FIG. 4B) concentration by >50%.

[3] = tested on: ob/ob mice; assay: Body weight gain, food and water intake in obese diabetic ob/ob mice; format: in vivo; conditions: 50 mg/kg orally, 15-21 days
Protocol: The ob/ob mice are lacking circulating leptin r and show hyperglycemia with significant weight gain. Both the compounds A and B at a dose of 50 mg/kg body weight were given orally in these animals for a period of 15-21 days.

[4] = tested on: ob/ob mice; assay: Hyperglycemia and OGTT in diabetic obese ob/ob mice; format: in vivo; conditions: 50 mg/kg orally, 15-21 days
Protocol: The ob/ob mice is lacking leptin signaling and show hyperglycemia with significant weight gain. The compounds at a dose 50 mg/kg body weight were given orally in these animals for a period of 15-21 days.

[5] = tested on: IL-6; assay: LPS induced IL-6 production in THP-1 monocyte cells; format: cell-based, Human; conditions: THP-1 cells, LPS 1 μg/ml, 24 hours, ELISA
Protocol: as §1

[6] = tested on: TNFα; assay: LPS induced TNFα production in THP-1 monocyte cells; format: cell-based, Human; conditions: THP-1 cells, LPS 1 μg/ml, 24 hours, ELISA
Protocol: as §1

[7] = tested on: 3T3-L1 fibroblasts; assay: Adipogenesis (lipid accumulation, oil red O) in 3T3-L1 fibroblasts; format: cell-based; conditions: 0.1 and 10 uM, 7 days, oil red O staining
Protocol: Rosiglitazone and Compound A at 0.1 and 10 uM concentrations, were treated for 7 days and at the end lipid droplets were stained with oil red O and visualized under microscope.

[8] = tested on: Human THP-1 monocyte cells; assay: Cell viability of THP-1 monocyte cells; format: cell-based; conditions: THP-1 cells, highest concentration of the compound
[9] = tested on: 3T3-L1 differentiated adipocytes; assay: Basal glucose uptake in 3T3-L1 adipocytes; format: cell-based; conditions: 72 hr treatment, absence of insulin, control 0.1% DMSO
Protocol: Basal glucose uptake was carried out in 3T3-L1 differentiated adipocytes. After 72 hr of treatment they were challenged with either rosiglitazone or Compound A, then glucose uptake was carried out in absence of insulin. The control was 0.1% DMSO. Cytochalasin B was added in another set of wells to show the effect is receptor mediated.

[10] = tested on: db/db mice; assay: Testing hyperglycemia in diabetic db/db mice; format: in vivo; conditions: for improvement of hyperglycemic conditions (blood glucose): db/db mice, 5, 10 and 50 mg/kg body weight orally, 15-21 days; for drop in blood glucose in treated animals compared to control groups: db/db mice, time course experiment following the oral dose (FIGS. 1A, 2A)
Protocol: The hypoglycemic effect of compounds A and B have been examined in spontaneous animal models of diabetes, leptin receptor knockout (db/db mice). The db/db mice have defective leptin receptor and show hyperglycemia with significant weight gain. The compound at a dose of 5, 10 (FIGS. 1C, 2C) and 50 mg/kg body weight (FIGS. lB, 2B) was given orally in these animals for a period of 15-21 days.

[11] = tested on: db/db mice; assay: Body weight gain, food and water intake in db/db mice; format: in vivo; conditions: 50 mg/kg orally, 15-21 days
Protocol: The db/db mice have defective leptin receptor and show hyperglycemia with significant weight gain. The compound B at a dose of 50 mg/kg body weight was given orally in these animals for a period of 15-21 days.

Row | Structure (SMILES) | inhibition of IL-1β production [1] | decrease in serum cholesterol concentrations [2] | body weight gain compared to controls [3] | food intake compared to control groups [3] | water intake compared to control groups [3] | OGTT (oral glucose tolerance) [4] | improvement of hyperglycemic conditions [4] | inhibition of IL-6 production [5] | inhibition of TNFα production [6] | adipogenesis (lipid accumulation) compared to rosiglitazone [7] | cell viability [8] | basal glucose uptake compared to control cells [9] | improvement of hyperglycemic conditions (blood glucose) [10] | drop in blood glucose in treated animals compared to control groups [10] | body weight gain compared to controls [11] | food intake compared to control groups [11] | water intake compared to control groups [11]
1 | COC(=O)C(Cc1ccc(Oc2ccc(CC3SC(=O)NC3=O)cc2)cc1)NC(=O)C(N)Cc1cnc[nH]1 (centres unmarked) [Compound A, 5-[4-(4-(2-(2-amino-3-imidazol-4-ylpropanamido)-2-methoxycarbonylethyl)phenoxy)benzyl]thiazolidin-2,4-dione dihydrochloride] | inhibit the production of three major pro-inflammatory cytokines in a dose dependent manner | 19% | significant reductions in body weight gain | improved significantly | improved significantly | significant improvement of OGTT | significant improvements of hyperglycemic conditions | inhibit the production of three major pro-inflammatory cytokines in a dose dependent manner | inhibit the production of three major pro-inflammatory cytokines in a dose dependent manner | did not show any adipogenesis | No significant change in cell viability | significant increase in basal glucose uptake | significant improvements of hyperglycemic conditions | 30% | – | – | –
2 | COC(=O)C(Cc1ccc(Oc2ccc(C=C3SC(=O)NC3=O)cc2)cc1)NC(=O)C(N)Cc1c[nH]cn1.Cl.Cl (centres unmarked) [Compound B, 5-[4-(4-(2-(2-Amino-3-imidazol-4-ylpropanamido)-2-methoxycarbonylethyl)phenoxy)benzylidene]thiazolidin-2,4-dione dihydrochloride] | inhibit the production of three major pro-inflammatory cytokines in a dose dependent manner | 19% | significant reductions in body weight gain | improved significantly | improved significantly | significant improvement of OGTT | significant improvements of hyperglycemic conditions | inhibit the production of three major pro-inflammatory cytokines in a dose dependent manner | inhibit the production of three major pro-inflammatory cytokines in a dose dependent manner | – | No significant change in cell viability | – | significant improvements of hyperglycemic conditions | 24% | significant reductions in body weight gain | improved significantly | improved significantly
